{"source": "patent US5037739A", "about": "“N-acetylmannosamine dehydrogenase, process for its production, method for quantitatively analyzing N-acetylmannosamine or sialic acid, and kit for the quantitative analysis” (Noda Institute for Scientific Research, priority 1986, dated 1991)", "key": {"N-AMDH [1]": {"target": "T1, N-AMDH (Flavobacterium sp., UniProt P22441)", "T1 construct": "N-AMDH was accumulated in the bacterial cells; endogenous in cells; host or cells: Flavobacterium sp; No. 141-8 (natural producer isolated from soil); enzyme purified from the disrupted bacterial cells", "T1 sequence (P22441 2-271 limits assumed)": "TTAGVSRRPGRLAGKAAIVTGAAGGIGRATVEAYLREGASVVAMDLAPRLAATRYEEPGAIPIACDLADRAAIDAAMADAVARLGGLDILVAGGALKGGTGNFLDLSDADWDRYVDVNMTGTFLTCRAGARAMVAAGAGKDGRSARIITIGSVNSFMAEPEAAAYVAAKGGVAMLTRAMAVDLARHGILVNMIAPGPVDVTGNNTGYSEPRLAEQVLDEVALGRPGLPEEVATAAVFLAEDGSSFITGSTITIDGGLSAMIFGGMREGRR", "assay": "Action and substrate-specificity of N-AMDH (substrates and electron acceptors)", "type": "biochemical, Flavobacterium sp. No. 141-8", "conditions": "for Action of N-AMDH upon the sugar as substrate: in the presence of NAD", "procedure": "In the presence of water, N-acetylmannosaminolactone is spontaneously hydrolyzed to form N-acetylmannosaminic acid. Accordingly, the reaction is substantially irreversible.\n(§1) To 1.8 ml of 0.05M tris-hydrochloric acid buffer (pH 8.2) is added 0.1 ml of 60 mM NAD solution. After keeping the mixture at 37° C. for 10 minutes, 10 microliters of enzyme solution is added, and then 0.1 ml of 0.3M N-AM is added. By homogenizing the mixture, the reaction is started. The reaction mixture is immediately transferred into a light absorbance measurement cell (light path 1 cm) kept at 37° C., and absorbance is measured over a period of 5 minutes (if necessary, over a longer period of time) at intervals of one minute at a wavelength of 340 nm. A quantity of enzyme capable of forming 1 micromole of NADH in one minute is taken as one unit."}, "N-AMDH [2]": {"target": "T1, N-AMDH", "assay": "N-AMDH enzymatic activity in solutions containing metallic ions and inhibitors", "type": "biochemical, Flavobacterium sp. No. 141-8", "conditions": "for remaining activity at 2000 µM: read-out: Residual activity (%)", "procedure": "The table presented above illustrates the enzymatic activity of N-AMDH measured in solutions containing various metallic ions and inhibitors at a concentration of 2 mM. There is known no substance making a particular contribution to its activation and stabilization.\nas §1"}, "[3]": {"tested_on": "Flavobacterium sp. No. 141-8", "assay": "Growth resistance of the producing strain (penicillin, sodium chloride)", "type": "cell-based", "source_text": "(1) Penicillin resistance: Growth even at 100 units/ml.\n(2) Sodium chloride resistance: No growth above 2%."}, "[4]": {"assay": "pH stability and heat stability (inactivation conditions) of N-AMDH", "type": "physicochemical, Flavobacterium sp. No. 141-8", "procedure": "The buffer solutions used there are potassium phosphate buffer, tris-hydrochloric acid buffer and glycine-sodium hydroxide buffer.\nAt temperatures exceeding 45° C., it rapidly loses its activity. When heat treated at 45° C. for 10 minutes, it is stable at a pH of 8.5-9.5, while it is particularly instable at a pH value of 7 or below."}, "[5]": {"assay": "Acrylamide gel isoelectric focusing of N-AMDH", "type": "physicochemical, Flavobacterium sp. No. 141-8", "source_text": "As measured by acrylamide gel isoelectric focusing, its isoelectric point is 4.9."}, "[6]": {"conditions": "N-AMDH activity with metallic ion or inhibitor at 2 mM, None = 100"}, "[7]": {"conditions": "heat treated at 45° C. for 10 minutes"}}, "note": "Like-named read-outs stand apart in the source and are kept apart here."}
{"compound": "O=C1C(Cl)=CC(=Nc2ccc(O)cc2)C=C1Cl", "note": "[2,6-dichlorophenol indophenol]", "values": [{"measurement": "Utilization as electron acceptor by N-AMDH", "setting": "N-AMDH [1]", "value": "hardly utilizes"}]}
{"compound": "Nc1ncnc2c1ncn2[C@@H]1O[C@H](COP(=O)(O)O)[C@@H](O)[C@H]1O", "note": "[5'-AMP]", "values": [{"measurement": "remaining activity at 2000 µM", "setting": "N-AMDH [2]; [6]", "value": 76, "unit": "%"}]}
{"compound": "Oc1cccc2cccnc12", "note": "[8-Hydroxyquinoline]", "values": [{"measurement": "Residual activity (%)", "setting": "N-AMDH [2]", "value": 95, "unit": "%"}]}
{"compound": "O=S(=O)([O-])[O-].[Cu+2]", "note": "[CuSO4]", "values": [{"measurement": "Residual activity (%)", "setting": "N-AMDH [2]; [6]", "value": 79, "unit": "%"}]}
{"compound": "O=C(O)CN(CCN(CC(=O)O)CC(=O)O)CC(=O)O", "note": "[EDTA]", "values": [{"measurement": "remaining activity at 2000 µM", "setting": "N-AMDH [2]", "value": 89, "unit": "%"}]}
{"compound": "[Cl][Hg][Cl]", "note": "[HgCl2]", "values": [{"measurement": "Residual activity (%)", "setting": "N-AMDH [2]; [6]", "value": 6, "unit": "%"}]}
{"compound": "NC(=O)CI", "note": "[Iodoacetamide]", "values": [{"measurement": "remaining activity at 2000 µM", "setting": "N-AMDH [2]; [6]", "value": 87, "unit": "%"}]}
{"compound": "CC(=O)N[C@@H]1C(O)O[C@H](CO)[C@@H](O)[C@@H]1O", "note": "(stereo partly shown) [N-AM, N-acetylmannosamine]", "values": [{"measurement": "Action of N-AMDH upon the sugar as substrate", "setting": "N-AMDH [1]", "value": "oxidizes N-AM into N-acetylmannoaminolactone"}]}
{"compound": "CC(=O)N[C@H]1C(O)O[C@H](CO)[C@H](O)[C@@H]1O", "note": "(stereo partly shown) [N-acetylgalactosamine]", "values": [{"measurement": "Action of N-AMDH upon the sugar as substrate", "setting": "N-AMDH [1]", "value": "hardly acts or does not act at all"}]}
{"compound": "CC(=O)N[C@H]1C(O)O[C@H](CO)[C@@H](O)[C@@H]1O", "note": "(stereo partly shown) [N-acetylglucosamine]", "values": [{"measurement": "Action of N-AMDH upon the sugar as substrate", "setting": "N-AMDH [1]", "value": "hardly acts or does not act at all"}]}
{"compound": "O=C(CO)N[C@@H]1C(O)O[C@H](CO)[C@@H](O)[C@@H]1O", "note": "(stereo partly shown) [N-glycolylmannosamine]", "values": [{"measurement": "Action of N-AMDH upon the sugar as substrate", "setting": "N-AMDH [1]", "value": "acts upon N-glycolylmannosamine in the same manner as above"}]}
{"compound": "NC(=O)c1ccc[n+]([C@@H]2O[C@H](COP(=O)([O-])OP(=O)(O)OC[C@H]3O[C@@H](n4cnc5c(N)ncnc54)[C@H](OP(=O)(O)O)[C@@H]3O)[C@@H](O)[C@H]2O)c1", "note": "[NADP, nicotinamide adenine dinucleotide phosphate]", "values": [{"measurement": "Utilization as electron acceptor by N-AMDH", "setting": "N-AMDH [1]", "value": "hardly utilizes"}]}
{"compound": "[N-]=[N+]=[N-].[Na+]", "note": "[NaN3]", "values": [{"measurement": "Residual activity (%)", "setting": "N-AMDH [2]; [6]", "value": 83, "unit": "%"}]}
{"compound": "O=S(=O)([O-])[O-].[Ni+2]", "note": "[NiSO4]", "values": [{"measurement": "Residual activity (%)", "setting": "N-AMDH [2]; [6]", "value": 69, "unit": "%"}]}
{"compound": "O=C(O)c1cc[c]([Hg][Cl])cc1", "note": "[PCMB]", "values": [{"measurement": "Residual activity (%)", "setting": "N-AMDH [2]; [6]", "value": 95, "unit": "%"}]}
{"compound": "CC1(C)S[C@@H]2[C@H](NC(=O)Cc3ccccc3)C(=O)N2[C@H]1C(=O)O", "note": "[Penicillin]", "values": [{"measurement": "Penicillin resistance: concentration at which the strain still grows", "setting": "[3]", "value": "≥ 100", "unit": "units/ml"}]}
{"compound": "CCCCCCCCCCCCOS(=O)(=O)O", "note": "[SDS]", "values": [{"measurement": "remaining activity at 2000 µM", "setting": "N-AMDH [2]; [6]", "value": 18, "unit": "%"}]}
{"compound": "[Cl-].[Na+]", "note": "[Sodium chloride]", "values": [{"measurement": "Sodium chloride resistance: concentration above which there is no growth", "setting": "[3]", "value": "above 2%"}]}
{"compound": "O=S(=O)([O-])[O-].[Zn+2]", "note": "[ZnSO4]", "values": [{"measurement": "Residual activity (%)", "setting": "N-AMDH [2]; [6]", "value": 71, "unit": "%"}]}
{"compound": "c1cnc2c(c1)ccc1cccnc12", "note": "[o-Phenanthroline]", "values": [{"measurement": "remaining activity at 2000 µM", "setting": "N-AMDH [2]; [6]", "value": 87, "unit": "%"}]}
{"compound": "c1ccc(-c2ccccn2)nc1", "note": "[α,α'-Dipyridyl]", "values": [{"measurement": "remaining activity at 2000 µM", "setting": "N-AMDH [2]; [6]", "value": 97, "unit": "%"}]}
{"compound": "N-acetylmannosamine dehydrogenase [N-AMDH]", "values": [{"measurement": "Temperature up to which activity is kept stable on heat treatment", "setting": "[4]; FIG. 4, heat treated for minutes", "value": "≤ 45", "unit": "°C"}, {"measurement": "pH at which it is particularly instable when heat treated", "setting": "[4]; [7]", "value": "≤ 7"}, {"measurement": "pH at which it is stable when heat treated", "setting": "[4]; [7]", "value": "8.5-9.5"}, {"measurement": "Isoelectric point", "setting": "[5]", "value": 4.9}]}
